Holding throughout (type): functional
In one experiment the test system is Bacillus subtilis. As to the kind of experiment: Antibacterial activity against Bacillus subtilis assessed as growth inhibition after 18 hr by broth microdilution method.
For another experiment, the system named is Staphylococcus aureus. The experiment can be described thus: Antibacterial activity against Staphylococcus aureus assessed as growth inhibition after 18 hr by broth microdilution method.
A further experiment relates to Escherichia coli. As to the kind of experiment: Antibacterial activity against Escherichia coli assessed as growth inhibition after 18 hr by broth microdilution method.
The test system of the next experiment is Vibrio cholerae. The experiment can be described thus: Antibacterial activity against Vibrio cholerae assessed as growth inhibition after 18 hr by broth microdilution method.
Experiment [1] has as its system Mycobacterium tuberculosis. The experiment can be described thus: Antitubercular activity against Mycobacterium tuberculosis H37Rv assessed as growth inhibition after 5 days by microplate alamar blue assay. As to conditions: 120 h.

≈ marks a conversion by molar mass, not a printed value.

Turning to `CCN(CC)c1ccc2cc(-c3nc4sc(S(=O)(=O)/N=C/N(C)C)nn4c3C#N)c(=O)oc2c1`, the MIC worked out at 62.5 µg/mL (≈ 125 µM) in the experiment on Bacillus subtilis; 62.5 µg/mL (≈ 125 µM) in the experiment with Staphylococcus aureus; 16 µg/mL (≈ 32 µM) in the experiment with Escherichia coli; 16 µg/mL (≈ 32 µM) with Vibrio cholerae; 25 µg/mL (≈ 50 µM) in experiment [1].

Regarding `CCN(CC)c1ccc2cc(-c3nc4sc(S(=O)(=O)/N=C/N(C)C)nn4c3CO)c(=O)oc2c1`, the MIC in the experiment on Bacillus subtilis is 31.2 µg/mL (≈ 61.9 µM); in the experiment with Staphylococcus aureus, 31.2 µg/mL (≈ 61.9 µM); with Escherichia coli, 8 µg/mL (≈ 15.9 µM); with Vibrio cholerae, 8 µg/mL (≈ 15.9 µM); in experiment [1] it was 3.12 µg/mL (≈ 6.19 µM).

Take `CCN(CC)c1ccc2cc(-c3nc4sc(S(=O)(=O)/N=C/N(C)C)nn4c3C=O)c(=O)oc2c1`: the MIC came to 16 µg/mL (≈ 31.8 µM) in the experiment with Bacillus subtilis; 16 µg/mL (≈ 31.8 µM) in the experiment with Staphylococcus aureus; 4 µg/mL (≈ 7.96 µM) in the experiment with Escherichia coli; 4 µg/mL (≈ 7.96 µM) in the experiment with Vibrio cholerae; 1.6 µg/mL (≈ 3.18 µM) in experiment [1].

Turning to `CN[C@@H]1[C@H](O[C@H]2[C@H](O[C@H]3[C@H](O)[C@@H](O)[C@H](N=C(N)N)[C@@H](O)[C@@H]3N=C(N)N)O[C@@H](C)[C@]2(O)C=O)O[C@@H](CO)[C@H](O)[C@H]1O` [STREPTOMYCIN], the MIC in experiment [1] came to 6.25 µg/mL (≈ 10.7 µM).

Consider `CCN(CC)c1ccc2cc(-c3nc4sc(S(=O)(=O)/N=C/N(C)C)nn4c3/C=N/O)c(=O)oc2c1`, for which the MIC in the experiment on Bacillus subtilis is 62.5 µg/mL (≈ 121 µM); in the experiment with Staphylococcus aureus it was 62.5 µg/mL (≈ 121 µM); with Escherichia coli, 16 µg/mL (≈ 30.9 µM); with Vibrio cholerae, 16 µg/mL (≈ 30.9 µM); in experiment [1], 25 µg/mL (≈ 48.3 µM).

Turning to `CCN(CC)c1ccc2cc(-c3nc4sc(S(=O)(=O)/N=C/N(C)C)nn4c3C3SCC(=O)N3c3ccccc3)c(=O)oc2c1` (stereo unspecified), the MIC with Bacillus subtilis turned out to be 16 µg/mL (≈ 24.5 µM); in the experiment with Staphylococcus aureus it was 16 µg/mL (≈ 24.5 µM); with Escherichia coli, 1 µg/mL (≈ 1.53 µM); with Vibrio cholerae it was 1 µg/mL (≈ 1.53 µM); in experiment [1] it was 0.8 µg/mL (≈ 1.23 µM).

`CCN(CC)c1ccc2cc(-c3nc4sc(S(N)(=O)=O)nn4c3Br)c(=O)oc2c1`: the MIC in the experiment on Bacillus subtilis worked out at 62.5 µg/mL (≈ 125 µM); in the experiment on Staphylococcus aureus, 62.5 µg/mL (≈ 125 µM); in the experiment with Escherichia coli, 16 µg/mL (≈ 32.1 µM); with Vibrio cholerae, 16 µg/mL (≈ 32.1 µM); in experiment [1], 6.25 µg/mL (≈ 12.5 µM).

For `CCN(CC)c1ccc2cc(-c3nc4sc(S(N)(=O)=O)nn4c3SC#N)c(=O)oc2c1`, the MIC came out at 62.5 µg/mL (≈ 131 µM) in the experiment with Bacillus subtilis; 62.5 µg/mL (≈ 131 µM) in the experiment on Staphylococcus aureus; 31.2 µg/mL (≈ 65.6 µM) in the experiment on Escherichia coli; 31.2 µg/mL (≈ 65.6 µM) in the experiment with Vibrio cholerae; 12.5 µg/mL (≈ 26.2 µM) in experiment [1].

With `CCN(CC)c1ccc2cc(-c3nc4sc(S(=O)(=O)/N=C/N(C)C)nn4c3/C=N/NC(=N)N)c(=O)oc2c1`, the MIC was 16 µg/mL (≈ 28.6 µM) with Bacillus subtilis; 16 µg/mL (≈ 28.6 µM) in the experiment on Staphylococcus aureus; 1 µg/mL (≈ 1.79 µM) with Escherichia coli; 1 µg/mL (≈ 1.79 µM) with Vibrio cholerae; 0.8 µg/mL (≈ 1.43 µM) in experiment [1].

For `CCn1cc(C(=O)O)c(=O)c2cc(F)c(N3CCNCC3)cc21` [NORFLOXACIN], the MIC in the experiment with Bacillus subtilis amounted to 2 µg/mL (≈ 6.26 µM); in the experiment on Staphylococcus aureus it was 2 µg/mL (≈ 6.26 µM); in the experiment with Escherichia coli, 16 µg/mL (≈ 50.1 µM); in the experiment with Vibrio cholerae it was 1 µg/mL (≈ 3.13 µM).

With `CCN(CC)c1ccc2cc(-c3nc4sc(S(N)(=O)=O)nn4c3CN3CCOCC3)c(=O)oc2c1`, the MIC was 62.5 µg/mL (≈ 121 µM) in the experiment with Bacillus subtilis; 62.5 µg/mL (≈ 121 µM) with Staphylococcus aureus; 31.2 µg/mL (≈ 60.3 µM) with Escherichia coli; 31.2 µg/mL (≈ 60.3 µM) in the experiment on Vibrio cholerae; 25 µg/mL (≈ 48.2 µM) in experiment [1].

Consider `CCN(CC)c1ccc2cc(-c3cn4nc(S(N)(=O)=O)sc4n3)c(=O)oc2c1`, for which the MIC was 62.5 µg/mL (≈ 149 µM) in the experiment with Bacillus subtilis; 62.5 µg/mL (≈ 149 µM) with Staphylococcus aureus; 31.2 µg/mL (≈ 74.5 µM) in the experiment with Escherichia coli; 31.2 µg/mL (≈ 74.5 µM) with Vibrio cholerae; 3.12 µg/mL (≈ 7.45 µM) in experiment [1].

For `CCN(CC)c1ccc2cc(-c3nc4sc(S(N)(=O)=O)nn4c3CN3CCCC3)c(=O)oc2c1`, the MIC was found to be 62.5 µg/mL (≈ 124 µM) with Bacillus subtilis; 62.5 µg/mL (≈ 124 µM) with Staphylococcus aureus; 8 µg/mL (≈ 15.9 µM) with Escherichia coli; 8 µg/mL (≈ 15.9 µM) with Vibrio cholerae; 25 µg/mL (≈ 49.7 µM) in experiment [1].

In the case of `CCN(CC)c1ccc2cc(-c3nc4sc(S(N)(=O)=O)nn4c3N=O)c(=O)oc2c1`, the MIC worked out at 125 µg/mL (≈ 279 µM) in the experiment with Bacillus subtilis; 125 µg/mL (≈ 279 µM) with Staphylococcus aureus; 31.2 µg/mL (≈ 69.7 µM) in the experiment with Escherichia coli; 31.2 µg/mL (≈ 69.7 µM) in the experiment with Vibrio cholerae; 50 µg/mL (≈ 111 µM) in experiment [1].

With `CCN(CC)c1ccc2cc(-c3nc4sc(S(N)(=O)=O)nn4c3CN3CCCCC3)c(=O)oc2c1`, the minimum inhibitory concentration (MIC) is 62.5 µg/mL (≈ 121 µM) with Bacillus subtilis; 62.5 µg/mL (≈ 121 µM) with Staphylococcus aureus; 31.2 µg/mL (≈ 60.5 µM) in the experiment on Escherichia coli; 31.2 µg/mL (≈ 60.5 µM) in the experiment with Vibrio cholerae; 25 µg/mL (≈ 48.4 µM) in experiment [1].

For `NC(=O)c1cnccn1` [PYRAZINAMIDE], in experiment [1], the MIC amounted to 3.12 µg/mL (≈ 25.4 µM).

The values above are taken from ChEMBL document CHEMBL3046572, “Synthesis and evaluation of antibacterial and antitubercular activities of some novel imidazo[2,1-b][1,3,4]thiadiazole derivatives” (2013).
